Test results from patent US7601494B2, “Method of screening candidate compounds for susceptibility to biliary excretion” (The University of North Carolina at Chapel Hill, priority 1999, dated 2009).

Legend:
[1] = Biliary excretion in bile duct cannulated rats after administration of [14C]264W94 / [14C]2169W94; assay type: in vivo, rat
Protocol: Male Wistar rats (250-280 g) from Charles River Laboratory (Raleigh, N.C.) were used as liver donors. Rats were housed individually in stainless-steel cages in a constant alternating 12-hr light and dark cycle at least 1 week before the study was performed, and were fed ad libitum until use. Bile duct cannulated rats (200-250 g) were obtained from Charles River (Raleigh, N.C.). The Institutional Animal Care and Use Committee at the University of North Carolina at Chapel Hill, Chapel Hill, N.C., approved all procedures.
[^14C]264W94 was formulated as a solution in a mixture of sterile water/polypropylene glycol 400/ethanol (2:1:1 v/v/v) at a concentration of 0.125 mg/mL. Following collection of pre-dose bile, [^14C]264W94 solution was administrated by caudal vein injection (0.1 mg/kg). For the 2169W94 studies, [^14C]2169W94 was prepared as a suspension at a concentration of 0.1 mg/mL in 0.5% (w/v) methylcellulose in water. Following collection of pre-dose bile, [^14C]2169W94 suspension was administrated by gavage (1.0 mg/kg). All rats were placed into individual plastic metabolism cages that allowed the rats unrestrained movement. Bile was collected into polypropylene containers surrounded by ice. For the 264W94 studies, the bile container was changed at 8 and 24 hours after the dose. […] Bile samples were stored at −20° C. until analysis.
Aliquots of cell lysate or bile samples containing 264W94 or 2169W94 were mixed with 2-fold volumes of ice-chilled acetonitrile, and centrifuged to remove precipitated proteins. The supernatant was evaporated under nitrogen at room temperature, and reconstituted in 100 μL of a 70/30 mixture of 50 mM ammonium acetate/acetonitrile/trifluoroacetic acid (95:5:0.1 v:v:v) and acetonitrile. […]
Radiocarbon that eluted from the HPLC was quantified with an on-line radioactivity detector (RADIOMATIC FLO-ONE/BETA™ Radio-Chromatography Detector Series 500 TR Series, Packard Instrument Co.). […] The concentration of the three components was determined by normalizing the eluted radioactivity in each peak to the total injected radioactivity.

[2] = system: sandwich-cultured hepatocytes; experiment: Cumulative uptake, Biliary Excretion Index and in vitro biliary clearance in 96-hr sandwich-cultured hepatocytes; assay type: in vitro ADME, rat
Protocol: To prepare sandwich-cultured hepatocytes, neutralized collagen solution (0.1 ml, about 1.5 to about 3.0 mg/ml, pH 7.4) was added to the monolayers 24 hr after the cells were seeded. […] Medium was changed on a daily basis until the fourth day after the cells were seeded. These hepatocytes were referred to as 96-hr or long-term cultured hepatocytes.
(§1) Hepatocytes cultured in a collagen-sandwich configuration were incubated in 3 ml standard buffer or Ca^2+-free buffer at 37° C. for 10 min. After removing the incubation buffer, uptake was initiated by addition of 3 ml standard buffer containing substrate to each dish. After incubation for designated times, cumulative uptake was terminated by aspirating the incubation solution and rinsing 4 times with 3 ml ice-cold standard buffer to remove extracellular substrate. After washing, 2 ml of 1% Triton X-100 solution was added to culture dishes, and the cells were lysed by shaking the dish on a shaker for 20 min at room temperature. An aliquot (1 ml) of lysate was analyzed by liquid scintillation spectrometry. Bio-Rad DC Protein Assay Kit (Bio-Rad Laboratories, Hercules, Calif.) was used to determine the protein concentration in the culture extracts using bovine serum albumin as standard. […] All values for substrate uptake into cell monolayers were corrected for nonspecific binding to the collagen by subtracting the substrate uptake determined in the appropriate control dishes in the absence of cells as described previously.
(§2) Uptake data were normalized to the protein content and expressed as mean±SD from 3-4 separate preparations of hepatocytes. Statistical differences between mean values for the 10-min cumulative substrate uptake in the presence and absence of Ca^2+ were determined by the use of the well-known Student's t-test. A P value of <0.05 was considered significant.
Biliary excretion of substrates in the monolayers was quantitatively assessed by the Biliary Excretion Index based on Equation 3:
[formula] where Uptakestandard and Uptake Ca^2+-free represent the cumulative uptake of substrate over a 10-min interval in the hepatocyte monolayers pre-incubated in standard buffer and in Ca^2+-free buffer, respectively.
Biliary clearance in the sandwich-cultured hepatocytes, ClB(culture) (ml/min/kg per body weight), was calculated according to Equation 4:
[formula] where Timeincubation was 10 min and Concentrationmedium represented the initial substrate concentration in the incubation medium. In some embodiments, a biliary clearance value can be calculated as the ratio of the mass in the bile canaliculi and the area under the curve (AUC) in culture medium, wherein the AUC represents the integral of candidate compound (e.g. xenobiotic concentration) in the medium from time 0 to time T (time can be measure in any desired units, and is usually measured in minutes). Indeed, the term AUC can refer to the following equation: […]

[3] = system: sandwich-cultured hepatocytes; experiment: HPLC analysis of 10-min cell lysate of 96-hr sandwich-cultured hepatocytes; assay type: in vitro ADME, rat; conditions: 96-hr hepatocytes incubated with 3 μM [14C]264W94, 10 min
Protocol: Aliquots of cell lysate or bile samples containing 264W94 or 2169W94 were mixed with 2-fold volumes of ice-chilled acetonitrile, and centrifuged to remove precipitated proteins. The supernatant was evaporated under nitrogen at room temperature, and reconstituted in 100 μL of a 70/30 mixture of 50 mM ammonium acetate/acetonitrile/trifluoroacetic acid (95:5:0.1 v:v:v) and acetonitrile. The sample extracts were injected onto a WATERS™ […]™ C18 column (3.9×150 mm) and eluted by a 85/15 mixture of 50 mM ammonium acetate (pH 4.0) and acetonitrile; the percentage of acetonitrile was increased by a WATERS™ 600E System Controller to 55% over a period of 20 minutes, and then to 100% during the next 10 minutes.
Radiocarbon that eluted from the HPLC was quantified with an on-line radioactivity detector (RADIOMATIC FLO-ONE/BETA™ Radio-Chromatography Detector Series 500 TR Series, Packard Instrument Co.). The peaks of 264W94, 2169W94, and 2169W94 glucuronide were identified by comparing with purified standard compound. Under these conditions, baseline separation of these three components was achieved. The concentration of the three components was determined by normalizing the eluted radioactivity in each peak to the total injected radioactivity. […]

[4] = system: hepatic cytochrome p450 isozymes; conditions: Silver et al. 1996; cited from earlier work
[5] = system: short-term cultured hepatocytes; experiment: Cumulative uptake in 3-hr (short-term) cultured hepatocyte monolayers, standard vs Ca2+-free buffer; assay type: in vitro ADME, rat; conditions: 3-hr cultured hepatocytes
Protocol: Hepatocytes were isolated with a two-step perfusion method. Briefly, rats were anesthetized with ketamine and xylazine (60 and 12mg/kg i.p., respectively) prior to portal vein cannulation. The liver was perfused in situ with oxygenated Ca^2+-free Krebs-Henseleit bicarbonate buffer containing collagenase type 1 (0.5 mg/ml) for 10 min. The hepatic capsule was removed with forceps. The hepatocytes were released by shaking the liver gently in 100 ml DMEM.
The released cells were filtered through a sterile nylon mesh (70-μm). The hepatocyte suspensions were centrifuged at 50 xg for 3 min. The cell pellet was resuspended in 25 ml DMEM and an equal volume of 90% isotonic polyvinylpyrrolidone-coated silica colloid centrifugation medium (pH 7.4) sold under the registered trademark PERCOLL® by Pharmacia, Inc. of Piscataway, N.J. The resulting cell suspension was centrifuged at about 70 to about 150 xg for 5 min. The pellet was resuspended in 50 ml DMEM and the cell suspensions were combined into one tube followed by centrifugation at 50 xg for 3 min. Hepatocyte viability was determined by trypan blue exclusion. Only those hepatocyte preparations with viability greater than 90% were utilized for further studies.
Hepatocyte suspensions were prepared with DMEM containing 5% fetal calf serum, 1 μM dexamethasone and 4 mg/L insulin. Hepatocyte suspensions were added to the precoated dishes at a density of about 2-3×10^6 cells/60-mm dish. Approximately 1 hr after plating the cells, the medium was aspirated and 3-ml fresh DMEM was added. For transport studies, hepatocytes that had been seeded for 3-5 hr without collagen overlay were defined as 3-hr or short-term cultured hepatocytes.
as §1, §2

biliary excretion in rats (in words) ([1]; in vivo): negligible biliary excretion
detection in bile in 24 hr ([1]; rats, i.v. [14C]264W94 0.24 μmol/kg): neither 264W94 nor 2169W94 was detected
total administered radioactivity recovered in bile ([1]; rats, oral administration 2.4 μmol/kg, in 8 hr, n=2): 66.4%
cumulative uptake in standard buffer compared to Ca2+-free buffer ([2]; 96-hr cultured hepatocytes): not significantly different
biliary excretion in long-term sandwich-cultured hepatocytes (in words) ([2]; 96-hr sandwich-cultured hepatocytes): lack of biliary excretion
share of total radioactivity in cell lysate [3]: 73.0%
cumulative uptake in standard buffer compared to Ca2+-free buffer [5]: similar
Compound: CCCC[C@]1(CC)CS(=O)(=O)c2cc(OC)c(OC)cc2[C@@H](c2ccccc2)N1 [264W94, (3R, 5R)-3-butyl-3-ethyl-2,3,4,5-tetrahydro-7,8-dimethoxy-5-phenyl-1,4-benzothiazepine-1,1-dioxide]
cytochrome p450 isozyme primarily involved in the metabolism [4]: CYP3A4
